What was measured:
[1] = molecular target: T1, mineral corticoid receptor (MR) (Homo sapiens, UniProt P08235); test: Binding to recombinant mineral corticoid receptor; conditions: recombinantly produced receptor
T1 sequence (P08235 1-984): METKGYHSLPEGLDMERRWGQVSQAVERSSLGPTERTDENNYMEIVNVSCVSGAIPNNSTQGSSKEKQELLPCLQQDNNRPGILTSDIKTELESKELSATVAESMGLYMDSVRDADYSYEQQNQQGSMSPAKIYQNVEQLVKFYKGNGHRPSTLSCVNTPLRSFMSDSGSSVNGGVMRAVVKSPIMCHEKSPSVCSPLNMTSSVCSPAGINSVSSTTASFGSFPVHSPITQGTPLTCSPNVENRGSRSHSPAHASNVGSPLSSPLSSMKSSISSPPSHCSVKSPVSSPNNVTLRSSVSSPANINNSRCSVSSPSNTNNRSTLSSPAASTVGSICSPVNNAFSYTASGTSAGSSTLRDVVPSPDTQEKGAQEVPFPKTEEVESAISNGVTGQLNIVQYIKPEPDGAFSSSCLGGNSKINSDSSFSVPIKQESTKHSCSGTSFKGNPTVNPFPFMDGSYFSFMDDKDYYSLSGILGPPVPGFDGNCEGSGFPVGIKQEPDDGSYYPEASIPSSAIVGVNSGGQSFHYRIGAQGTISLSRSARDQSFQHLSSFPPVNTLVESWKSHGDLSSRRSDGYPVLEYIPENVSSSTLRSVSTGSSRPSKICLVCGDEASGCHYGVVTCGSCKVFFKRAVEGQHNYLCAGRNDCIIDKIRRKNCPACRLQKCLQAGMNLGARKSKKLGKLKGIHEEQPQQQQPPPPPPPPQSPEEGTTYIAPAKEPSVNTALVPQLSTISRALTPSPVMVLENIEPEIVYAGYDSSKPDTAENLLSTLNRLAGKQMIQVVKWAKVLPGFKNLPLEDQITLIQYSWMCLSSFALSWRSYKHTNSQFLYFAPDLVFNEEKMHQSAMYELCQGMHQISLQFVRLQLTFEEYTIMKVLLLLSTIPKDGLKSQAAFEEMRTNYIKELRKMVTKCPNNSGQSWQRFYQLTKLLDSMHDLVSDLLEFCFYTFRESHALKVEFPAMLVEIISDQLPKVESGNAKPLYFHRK
Text: (§1) The binding of the substances to the glucocorticoid receptor (GR) and other steroid hormone receptors (mineral corticoid receptor (MR), progesterone receptor (PR) and androgen receptor (AR)) is examined with the aid of recombinantly produced receptors. Cytosol preparations of Sf9 cells, which had been infected with recombinant baculoviruses, which code for the GR, are used for the binding studies. In comparison to reference substance [^3H]-dexamethasone, the substances show a high to very high affinity to GR.

[2] = tested on: human monocyte cell line THP-1; test: Inhibition of LPS-triggered IL-8 secretion in THP-1 cells (ELISA); format: cell-based
Experimental: The concentration of the cytokines was determined in the supernatant by means of commercially available ELISA kits.

[3] = molecular target: T2, glucocorticoid receptor (GR) (Homo sapiens, UniProt P04150); test: Binding to recombinant glucocorticoid receptor, Sf9 cytosol, vs [3H]-dexamethasone; conditions: [3H]-dexamethasone reference
T2 construct: made in house; host or cells: Sf9 cells infected with recombinant baculovirus (cytosol preparation)
T2 sequence (P04150 1-777): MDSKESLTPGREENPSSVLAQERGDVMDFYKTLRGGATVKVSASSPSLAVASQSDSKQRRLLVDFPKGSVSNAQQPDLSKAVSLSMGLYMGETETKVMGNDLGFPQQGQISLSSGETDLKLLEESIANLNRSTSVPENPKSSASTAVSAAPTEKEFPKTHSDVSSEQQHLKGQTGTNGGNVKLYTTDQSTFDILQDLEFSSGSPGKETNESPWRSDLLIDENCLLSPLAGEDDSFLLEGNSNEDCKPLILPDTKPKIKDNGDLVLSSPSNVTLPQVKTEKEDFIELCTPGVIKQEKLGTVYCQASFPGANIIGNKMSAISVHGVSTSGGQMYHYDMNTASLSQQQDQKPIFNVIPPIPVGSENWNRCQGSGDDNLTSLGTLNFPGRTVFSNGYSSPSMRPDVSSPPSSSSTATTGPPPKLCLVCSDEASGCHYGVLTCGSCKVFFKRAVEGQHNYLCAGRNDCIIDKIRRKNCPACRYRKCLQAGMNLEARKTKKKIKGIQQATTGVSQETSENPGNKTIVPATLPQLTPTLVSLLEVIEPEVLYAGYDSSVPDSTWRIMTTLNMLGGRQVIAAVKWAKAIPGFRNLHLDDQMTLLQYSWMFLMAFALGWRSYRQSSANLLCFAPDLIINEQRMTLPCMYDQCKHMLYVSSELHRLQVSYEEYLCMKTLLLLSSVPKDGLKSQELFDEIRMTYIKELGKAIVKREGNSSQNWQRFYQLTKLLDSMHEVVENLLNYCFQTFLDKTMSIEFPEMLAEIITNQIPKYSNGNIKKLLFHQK
Text: as §1

[4] = molecular target: T3, androgen receptor (AR) (Homo sapiens, UniProt P10275); test: Binding to recombinant androgen receptor; conditions: recombinantly produced receptor
T3 sequence (P10275 1-920): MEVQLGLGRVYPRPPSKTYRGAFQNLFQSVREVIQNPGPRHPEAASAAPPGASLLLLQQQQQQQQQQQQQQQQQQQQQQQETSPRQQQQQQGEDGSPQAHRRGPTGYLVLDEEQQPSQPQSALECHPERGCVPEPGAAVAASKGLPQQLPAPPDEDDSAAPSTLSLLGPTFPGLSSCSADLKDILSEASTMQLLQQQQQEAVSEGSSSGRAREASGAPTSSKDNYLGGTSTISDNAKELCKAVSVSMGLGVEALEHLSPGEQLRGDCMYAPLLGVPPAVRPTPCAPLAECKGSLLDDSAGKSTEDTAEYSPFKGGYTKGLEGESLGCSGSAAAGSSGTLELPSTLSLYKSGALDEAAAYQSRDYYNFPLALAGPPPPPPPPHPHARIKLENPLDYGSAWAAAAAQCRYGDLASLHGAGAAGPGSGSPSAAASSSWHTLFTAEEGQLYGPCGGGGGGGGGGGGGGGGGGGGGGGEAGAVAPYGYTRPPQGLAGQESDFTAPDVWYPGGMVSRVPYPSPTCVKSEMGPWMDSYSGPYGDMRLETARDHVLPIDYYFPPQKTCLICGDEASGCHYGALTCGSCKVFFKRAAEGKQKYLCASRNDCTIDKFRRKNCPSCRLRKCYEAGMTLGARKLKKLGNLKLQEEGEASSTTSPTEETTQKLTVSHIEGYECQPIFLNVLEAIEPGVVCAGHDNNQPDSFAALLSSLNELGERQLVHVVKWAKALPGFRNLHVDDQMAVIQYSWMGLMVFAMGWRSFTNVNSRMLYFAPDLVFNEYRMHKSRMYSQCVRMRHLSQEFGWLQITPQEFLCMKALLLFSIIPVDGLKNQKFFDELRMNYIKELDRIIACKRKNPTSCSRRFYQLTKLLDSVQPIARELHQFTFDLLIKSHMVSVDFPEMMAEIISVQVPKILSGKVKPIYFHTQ
Text: as §1

[5] = molecular target: T4, progesterone receptor (PR) (Homo sapiens, UniProt P06401); test: Binding to recombinant progesterone receptor; conditions: recombinantly produced receptor
T4 sequence (P06401 1-933): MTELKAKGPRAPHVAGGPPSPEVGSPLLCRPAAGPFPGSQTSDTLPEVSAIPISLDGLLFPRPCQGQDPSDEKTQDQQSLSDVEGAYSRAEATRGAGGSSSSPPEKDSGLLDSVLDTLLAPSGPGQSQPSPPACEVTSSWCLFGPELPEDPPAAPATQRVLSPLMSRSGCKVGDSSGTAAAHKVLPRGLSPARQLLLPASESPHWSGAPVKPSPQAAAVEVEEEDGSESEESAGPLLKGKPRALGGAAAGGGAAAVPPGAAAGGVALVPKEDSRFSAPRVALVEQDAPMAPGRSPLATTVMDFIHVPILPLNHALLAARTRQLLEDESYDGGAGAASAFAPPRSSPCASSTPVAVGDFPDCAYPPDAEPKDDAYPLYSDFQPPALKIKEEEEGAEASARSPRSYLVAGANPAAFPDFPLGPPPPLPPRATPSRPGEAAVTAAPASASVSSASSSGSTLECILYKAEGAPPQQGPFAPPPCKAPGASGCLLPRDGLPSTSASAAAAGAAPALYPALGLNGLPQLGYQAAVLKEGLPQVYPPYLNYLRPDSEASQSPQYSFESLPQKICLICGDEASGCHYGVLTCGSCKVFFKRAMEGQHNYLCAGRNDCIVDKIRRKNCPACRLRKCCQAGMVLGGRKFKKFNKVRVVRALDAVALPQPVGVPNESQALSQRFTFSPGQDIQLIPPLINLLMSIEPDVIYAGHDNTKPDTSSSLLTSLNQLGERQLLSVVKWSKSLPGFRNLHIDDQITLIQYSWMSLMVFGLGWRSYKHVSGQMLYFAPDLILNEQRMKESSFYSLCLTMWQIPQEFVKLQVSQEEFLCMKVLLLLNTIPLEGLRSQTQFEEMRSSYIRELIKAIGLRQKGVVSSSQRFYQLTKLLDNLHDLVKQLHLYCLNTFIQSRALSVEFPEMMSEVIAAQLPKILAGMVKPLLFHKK
Text: as §1

[6] = molecular target: ER; test: Steroid receptor binding, ER

IC50 [1]: > 1000 nM
IC50 ([2]; Homo sapiens, THP-1, supernatant ELISA, read-out: IC50(IL8)): 2.4 nM
IC50 [3]: 16.5 nM
IC50 [4]: > 1000 nM
IC50 [5]: > 1000 nM
IC50 [6]: > 1000 nM
SMILES: CC[C@@H]1C[C@](O)(C(F)(F)F)[C@@H](Nc2cccc3c2cnn3-c2ccc(F)cc2)c2ccc(F)c(O)c21 [Example 4]
eff. relative to dexamethasone (IL-8 inhibition) ([2]; THP-1, relative to dexamethasone): 91%
